Laboratory results published in patent US6342582B1, “Reaction and dissolving medium for peptides and synthesis method using this medium” (Rhodia Chimie, priority 1990, dated 2002).
Counter-ions that a name gives are not always drawn. Where a SMILES comes first, the peptide text is derived from it. The star is where a group is joined. OBn = c1ccc(CO*)cc1

Tests used:
[1] = Dissolving experiments: solubility of the peptide intermediate in solvent or solvent/additive mixture; conditions: 25° C.; for Solubility in the 4/1 dichloromethane/phenol mixture: 4/1 dichloromethane/phenol by weight; for Solubility in 4/1 dichloromethane/dimethylformamide: comparison, additive not part of the invention
Description: Protocol for dissolving experiments
The solubilities of the peptide intermediate were determined as follows, at a temperature of 25° C.
An accurately weighed amount of the peptide intermediate is placed in a Pyrex tube. The solvent or mixture of solvents to be tested is then introduced using a precision pipette so as to obtain a ratio of mass of peptide/volume of solvent of 8 g/100 cm^3.
The tube, closed by a screw stopper, is then placed on a HEIDOLPH agitator, TOP-MIX model, vibrating at its maximum speed for 60 seconds.
If not, the volume of solvent is doubled and the procedure is started again.
At the end of 4 successive dilutions without complete dissolution, the measurements are repeated on a smaller amount of solid.
Remarks: The composition of the solvent/additive mixtures is expressed by weight.

[2] = Solubility in dichloromethane determined by HPLC, external standardization, on a saturated solution; format: physicochemical
Description: The solubility in dichloromethane was determined by HPLC, using external standardization, on a saturated solution of Boc-Gly5-OCH3.
The solubility in dichloromethane was determined by HPLC, by external standardization on the supernatant of a saturated solution; the other solubilities were determined as in Example 1: […]

[3] = Distribution of the peptide between dichloromethane (with phenol) and water; format: physicochemical; conditions: dichloromethane (12 cm^3) + 3.9 g phenol / aqueous KHCO3 2 N (3 cm^3); HPLC
Description: With a view to purification of this tetrapeptide, by washing with water at the end of its synthesis, the distribution of this peptide between dichloromethane and water was studied as follows.
A solution of Gly-Gly-Phe-Leu-OBzl hydrochloride (0.9 mmole) in dichloromethane (12 cm^3) is stirred vigorously in the presence of an aqueous KHCO3 solution (2 N; 3 cm^3). This mixture yields an emulsion which remains stable for several days. A comparative experiment was carried out in the presence of phenol:
A distribution experiment carried out in accordance with Example 15 after the addition of 3.9 g of phenol to the organic solution yields, after identical stirring, two clear liquid phases, the settling out of which is complete in less than 15 minutes.

[4] = comparison additive, concentrations lower than 2 g/100 cm^3 were not tested

Q: Which results are given for `NC(N)=NCCC[C@H](N)C(=O)N1CCC[C@H]1C(=O)O` [Afg-Pro.2HCl, L-arginyl-L-proline dihydrochloride] (H-Arg-Pro-OH)?
A: Solubility in the 4/1 dichloromethane/phenol mixture [1]: s = 2 g/100 cm^3; Solubility in dichloromethane [1]: s < 0.05 g/100 cm^3

Q: Which “Solubility in dichloromethane (HPLC)” value [2] does the source give for `COC(=O)CNC(=O)CNC(=O)CNC(=O)CNC(=O)CNC(=O)OC(C)(C)C` [Boc-Gly5-OCH3, N-tert-butoxycarbonylpentaglycine methyl ester] here?
A: The value was “s = 0.33 g/100 cm^3”.

Q: What about the “Solubility in 2-chlorophenol” value ([1]; 2-chlorophenol alone) of the same molecule?
A: The value was “s > 8 g/100 cm^3”.

Q: And the “Solubility in 4/1 anisole/phenol” value ([1]; 4/1 anisole/phenol by weight)?
A: Its value is “s = 4 g/100 cm^3”.

Q: What about the “Solubility in the 4/1 dichloromethane/phenol mixture” value [1] of the same molecule?
A: Its value is “s = 4 g/100 cm^3”.

Q: What about the “Solubility in 20/1 dichloromethane/phenol” value ([1]; 20/1 dichloromethane/phenol by weight) of the same molecule?
A: The value was “s = 0.5 g/100 cm^3”.

Q: What about the Solubility in anisole ([1]; anisole) of the same molecule?
A: The Solubility in anisole was “s < 0.05 g/100 cm^3”.

Q: For `CC(C)(C)OC(=O)NCC(=O)NCC(=O)NCC(=O)NCC(=O)NCC(=O)OCc1ccccc1` [Boc-Gly-Gly-Gly-Gly-Gly-O-CH2-Ph, N-tert-butoxycarbonylpentaglycine benzyl ester], which “Solubility in dichloromethane (HPLC)” value [2] is on record?
A: Its value is “s = 0.07 g/100 cm^3”.

Q: And the “Solubility in 9/1 dichloromethane/phenol” value ([1]; 9/1 dichloromethane/phenol by weight)?
A: The value was “s > 5 g/100 cm^3”.

Q: And the “Solubility in 9/1 dichloromethane/2-octanol” value [1, 4]?
A: The value was “s < 2 g/100 cm^3”.

Q: And the “Solubility in 9/1 dichloromethane/dimethylformamide” value [1, 4]?
A: Its value is “s < 2 g/100 cm^3”.

Q: What about the “Solubility in 9/1 dichloromethane/pivalic acid” value [1, 4] of the same molecule?
A: The value was “s < 2 g/100 cm^3”.

Q: And the “Solubility in 9/1 dichloromethane/trifluoroethanol” value [1, 4]?
A: The value was “s < 2 g/100 cm^3”.

Q: And the “Solubility in dichloromethane saturated with LiCl” value [1, 4]?
A: The value was “s < 2 g/100 cm^3”.

Q: For `CC(C)C[C@H](NC(=O)[C@H](Cc1ccccc1)NC(=O)CNC(=O)CN)C(=O)OCc1ccccc1` [Gly-Gly-Phe-Leu-OBzl, Glycyl-glycyl-L-phenylalanyl-L-leucine benzyl ester] (H-GGFL-OBn), which “Share of the tetrapeptide employed found in the aqueous phase” value [3] is on record?
A: Its value is 0.4%.

Q: For `N[C@@H](Cc1c[nH]cn1)C(=O)N[C@@H](Cc1c[nH]c2ccccc12)C(=O)O` [His,Trp.HCl, L-histidinyl-L-tryptophan hydrochloride], which “Solubility in the 4/1 dichloromethane/phenol mixture” value [1] is on record?
A: Its value is “s = 2 g/100 cm^3”.

Q: And the Solubility in dichloromethane [1]?
A: Its Solubility in dichloromethane is “s < 0.05 g/100 cm^3”.

Q: For `CC(C)C[C@H](N)C(=O)N[C@@H](CCCNC(=N)N)C(=O)N1CCC[C@H]1C(=O)NCC(N)=O` [Leu-Arg-Pro-Gly-NH2.HCl, L-leucyl-L-arginyl-L-prolyl-glycinamide hydro-chloride] (H-LRPG-NH2), which “Solubility in 4/1 dichloromethane/3-trifluoromethylphenol” value ([1]; 4/1 dichloromethane/3-trifluoromethylphenol by weight) is on record?
A: Its value is “s = 4 g/100 cm^3”.

Q: And the “Solubility in 4/1 dichloromethane/4-methoxyphenol” value ([1]; 4/1 dichloromethane/4-methoxyphenol by weight)?
A: The value was “s = 4 g/100 cm^3”.

Q: And the “Solubility in 4/1 dichloromethane/dimethylformamide” value [1]?
A: The value was “s < 0.5 g/100 cm^3”.

Q: And the “Solubility in the 4/1 dichloromethane/phenol mixture” value [1]?
A: The value was “s = 4 g/100 cm^3”.

Q: What about the “Solubility in 5/1 dichloromethane/2-hydroxypyridine” value ([1]; 5/1 dichloromethane/2-hydroxypyridine by weight) of the same molecule?
A: The value was “s = 1 g/100 cm^3”.

Q: What about the Solubility in dichloromethane [1] of the same molecule?
A: The Solubility in dichloromethane was “s < 0.05 g/100 cm^3”.

Q: Which “Solubility in 4/1 dichloromethane/dimethylformamide” value [1] does the source give for `NC(=O)CNC(=O)[C@@H]1CCCN1` [Pro-Gly-NH2.HCl, L-prolyl-glycinamide hydrochloride] (H-Pro-Gly-NH2) here?
A: The value was “s < 0.5 g/100 cm^3”.

Q: And the “Solubility in the 4/1 dichloromethane/phenol mixture” value [1]?
A: The value was “s > 16 g/100 cm^3”.

Q: And the Solubility in dichloromethane [1]?
A: The Solubility in dichloromethane was “s < 0.05 g/100 cm^3”.

Q: With `COC(=O)[C@H](Cc1ccc(O)cc1)NC(=O)[C@@H](N)CO` [Ser-Tyr-OCH3.HCl, L-serinyl-L-tyrosine methyl ester hydrochloride] (H-Ser-Tyr-OMe) as the molecule, how does the Solubility in dichloromethane [1] read?
A: The Solubility in dichloromethane was “s < 0.05 g/100 cm^3”.
